From US7868172B2, “2-(hetero)-aryl substituted tetrahydroquinoline derivatives” (Merck Patent GmbH, priority 2003, dated 2011)
Several values for one entry are separate records, joined by “and”; a condition that tells them apart may be missing. Identical values can stand only once.

Columns and labels:
[1] = system: HCT116 cells; assay: Cell cycle analysis, propidium iodide FACS (DNA content); format: cell-based; details: for percentage of cells in the G0/G1 phase (G1) / percentage of cells in the G2/M phase / percentage of cells in the S phase: HCT116, 24 hrs
Description: Monasterol and pentamidine in individual experiments: • HCT116 cells were treated with the given concentrations of the compounds for 24 hrs, processed for the propidium iodide analysis with a BD-FACS scan in order to determine the DNA content of the treated cell populations. The percentage of cells in the G0/G1 phase (unreplicated DNA), S phase (DNA replication phase) and G2/M phase (duplicated DNA before mitosis) is shown. 10,000 events were counted for each concentration. Striking changes in the G2/M enrichment have been highlighted.

[2] = system: colon carcinoma cell line HCT116; assay: Assay II: combination cell proliferation test, Crystal Violet staining; format: cell-based; details: for -fold inhibition of proliferation / OD550 nm background corrected / % of control: 48 hrs
Description: The combination of the antiprotozoic pentamidine and the inhibitors of kinesin ATPase Eg5/KSP results in increased inhibitory effects in cell proliferation tests with the colon carcinoma cell line HCT116.
10^3 to 10^4 cells of a defined cell line (HCT116, Colo 205, MDA-MB 231, etc.) are sown into each well of a 96-well microtitre plate and cultivated overnight under standard conditions. For the substances of the combination to be tested, 10-50 mM stock solutions in DMSO were prepared. Dilution series (generally 3-fold dilution steps) of the individual substances were combined with one another in the form of a pipetting scheme (see scheme below), while maintaining a DMSO final concentration of 0.5% (v/v). Next morning, the substance mixtures were added to the cells, which were incubated under culture conditions for a further 48 hours. At the end of the cultivation, Crystal Violet staining of the cells was carried out. After extraction of the Crystal Violet from the fixed cells, the absorption at 550 nm was measured spectrophotometrically. It can be used as a quantitative measure of the adherent cells present.
HCT116 cells were incubated overnight at 37° C. in 96-well plates at a density of 2500 or 5000 cells/well. On the following day, a concentration matrix of pentamidine and the compounds indicated was added, and the cells were incubated for a further 48 hrs. The cells were then stained with Crystal Violet, and the absorption was measured after extraction of the dye. The absorption value reflects the number of cells in the well.
Results: Upper matrix: OD550 nm background corrected Central matrix: % of control (the 100% value stands for vehicle-treated cells minus background signal) Lower field: -fold inhibition values (i.e. the 100%/x % value stands for a-fold inhibition of proliferation).

[3] = monastrol 6.125 μM, pentamidine 0 μM
[4] = monastrol 12.5 μM, pentamidine 0 μM
[5] = monastrol 25 μM, pentamidine 0 μM
[6] = monastrol 50 μM, pentamidine 0 μM

## CCOC(=O)C1=C(C)NC(=S)NC1c1cccc(O)c1 (stereo not drawn) [Monastrol]
[1]; 0.08 μM
  percentage of cells in the G0/G1 phase (G1): 35%
  percentage of cells in the G2/M phase: 25%
  percentage of cells in the S phase: 39%
[1]; 0.4 μM
  percentage of cells in the G0/G1 phase (G1): 34%
  percentage of cells in the G2/M phase: 28%
  percentage of cells in the S phase: 38%
[1]; 2 μM
  percentage of cells in the G0/G1 phase (G1): 33%
  percentage of cells in the G2/M phase: 25%
  percentage of cells in the S phase: 42%
[1]; 10 μM
  percentage of cells in the G0/G1 phase (G1): 34%
  percentage of cells in the G2/M phase: 27%
  percentage of cells in the S phase: 39%
[1]; 50 μM
  percentage of cells in the G0/G1 phase (G1): 14%
  percentage of cells in the G2/M phase: 52%
  percentage of cells in the S phase: 33%
[2]; Homo sapiens, HCT-116, 48 h, monastrol 6.125 μM, pentamidine 0 μM, read-out: % of control
  activity at 6.125 µM: 84%
[2]; Homo sapiens, HCT-116, 48 h, monastrol 12.5 μM, pentamidine 0 μM, read-out: % of control
  activity at 12.5 µM: 62%
[2]; Homo sapiens, HCT-116, 48 h, monastrol 25 μM, pentamidine 0 μM, read-out: % of control
  activity at 25 µM: 53%
[2]; Homo sapiens, HCT-116, 48 h, monastrol 50 μM, pentamidine 0 μM, read-out: % of control
  activity at 50 µM: 17%
[2]; [3]
  -fold inhibition of proliferation: 1 fold
  OD550 nm background corrected: 0.68
[2]; [4]
  -fold inhibition of proliferation: 2 fold
  OD550 nm background corrected: 0.51
[2]; [5]
  -fold inhibition of proliferation: 2 fold
  OD550 nm background corrected: 0.43
[2]; [6]
  -fold inhibition of proliferation: 6 fold
  OD550 nm background corrected: 0.14

## N=C(N)c1ccc(OCCCCCOc2ccc(C(=N)N)cc2)cc1.O=S(=O)(O)CCO.O=S(=O)(O)CCO [Pentamidine Isothionate]
[1]; 0.016 μM
  percentage of cells in the G0/G1 phase (G1): 36%
  percentage of cells in the G2/M phase: 22%
  percentage of cells in the S phase: 42%
[1]; 0.08 μM
  percentage of cells in the G0/G1 phase (G1): 35%
  percentage of cells in the G2/M phase: 21%
  percentage of cells in the S phase: 44%
[1]; 0.4 μM
  percentage of cells in the G0/G1 phase (G1): 33%
  percentage of cells in the G2/M phase: 22%
  percentage of cells in the S phase: 45%
[1]; 2 μM
  percentage of cells in the G0/G1 phase (G1): 32%
  percentage of cells in the G2/M phase: 24%
  percentage of cells in the S phase: 44%
[1]; 10 μM
  percentage of cells in the G0/G1 phase (G1): 32%
  percentage of cells in the G2/M phase: 32%
  percentage of cells in the S phase: 32%

## CC(C)(C)c1ccc2c(c1)[C@H]1OCCC[C@H]1[C@H](c1ccsc1)N2 [Example I12]
[1]; 0.0032 μM
  percentage of cells in the G0/G1 phase (G1): 36%
  percentage of cells in the G2/M phase: 21%
  percentage of cells in the S phase: 44%
[1]; 0.016 μM
  percentage of cells in the G0/G1 phase (G1): 36%
  percentage of cells in the G2/M phase: 21%
  percentage of cells in the S phase: 43%
[1]; 0.08 μM
  percentage of cells in the G0/G1 phase (G1): 35%
  percentage of cells in the G2/M phase: 23%
  percentage of cells in the S phase: 42%
[1]; 0.4 μM
  percentage of cells in the G0/G1 phase (G1): 7%
  percentage of cells in the G2/M phase: 86%
  percentage of cells in the S phase: 7%
[1]; 2 μM
  percentage of cells in the G0/G1 phase (G1): 0%
  percentage of cells in the G2/M phase: 85%
  percentage of cells in the S phase: 15%
[2]; Homo sapiens, HCT-116, 48 h, I12 0.025 μM, pentamidine 0 μM, read-out: % of control
  activity at 0.025 µM: 91%
[2]; Homo sapiens, HCT-116, 48 h, I12 0.05 μM, pentamidine 0 μM, read-out: % of control
  activity at 0.05 µM: 98%
[2]; Homo sapiens, HCT-116, 48 h, I12 0.1 μM, pentamidine 0 μM, read-out: % of control
  activity at 0.1 µM: 90%
[2]; Homo sapiens, HCT-116, 48 h, I12 0.2 μM, pentamidine 0 μM, read-out: % of control
  activity at 0.2 µM: 90%
[2]; Homo sapiens, HCT-116, 48 h, I12 0.4 μM, pentamidine 0 μM, read-out: % of control
  activity at 0.4 µM: 31%
[2]; I12 0.025 μM, pentamidine 0 μM
  -fold inhibition of proliferation: 1 fold
  OD550 nm background corrected: 1.1
[2]; I12 0.05 μM, pentamidine 0 μM
  -fold inhibition of proliferation: 1 fold
  OD550 nm background corrected: 1.2
[2]; I12 0.1 μM, pentamidine 0 μM
  -fold inhibition of proliferation: 1 fold
  OD550 nm background corrected: 1.1
[2]; I12 0.2 μM, pentamidine 0 μM
  -fold inhibition of proliferation: 1 fold
  OD550 nm background corrected: 1.1
[2]; I12 0.4 μM, pentamidine 0 μM
  -fold inhibition of proliferation: 3 fold
  OD550 nm background corrected: 0.4

## N=C(N)c1ccc(OCCCCCOc2ccc(C(=N)N)cc2)cc1 [Pentamidine, pentamidine]
[1]
  effect on the cell cycle (in words): maintain cells in the G2/M cell cycle
[2]; Homo sapiens, HCT-116, 48 h, pentamidine 4 μM alone, read-out: % of control
  activity at 4 µM: 85%
[2]; Homo sapiens, HCT-116, 48 h, pentamidine 8 μM alone, read-out: % of control
  activity at 8 µM: 50%
[2]; Homo sapiens, HCT-116, 48 h, pentamidine 16 μM alone, read-out: % of control
  activity at 16 µM: 30%
[2]; Homo sapiens, HCT-116, 48 h, pentamidine 32 μM alone, read-out: % of control
  activity at 32 µM: 20%
[2]; pentamidine 2 μM alone
  % of control: 86% and 124%
  -fold inhibition of proliferation: 1 fold
  OD550 nm background corrected: 1.0 and 1.01
[2]; pentamidine 4 μM alone
  % of control: 101%
  -fold inhibition of proliferation: 1 fold
  OD550 nm background corrected: 1.0 and 0.82
[2]; pentamidine 8 μM alone
  % of control: 55%
  -fold inhibition of proliferation: 2 fold
  OD550 nm background corrected: 0.6 and 0.45
[2]; pentamidine 16 μM alone
  % of control: 18%
  -fold inhibition of proliferation: 3 fold and 6 fold
[2]; pentamidine 32 μM alone
  -fold inhibition of proliferation: 5 fold
  OD550 nm background corrected: 0.2
